We go through 7 sequences from patent US20040185499A1, “Method of epitope scanning using fluorescence polarization” (priority 2003, published 2004).

Where no end group is shown, it is not given here. The star is where a group is joined. 6FAM = O=C1OC2(c3ccc(O)cc3Oc3cc(O)ccc32)c2cc(C(=O)*)ccc21

The test system of the experiment is antibodies to MPB70 in M. bovis positive bovine serum. The experiment is classed as binding. To be noted: pH 7.5.
For the sequence “SNNPELTTLTAALSG (6FAM-SNNPELTTLTAALSG; listed as Mycobacterium bovis) [Peptide 21]”, the “increase in fluorescence polarization with M. bovis positive bovine serum sample” value (“increase in fluorescence polarization” below) is reported as “substantial increase in fluorescence polarization”.

As for “NNPELTTLTAALSGQ (6FAM-NNPELTTLTAALSGQ; listed as Mycobacterium bovis) [Peptide 22]”, the “increase in fluorescence polarization” value is “substantial increase in fluorescence polarization”.

Regarding “VAASNNPELTTLTAA (6FAM-VAASNNPELTTLTAA; listed as Mycobacterium bovis) [Peptide 18]”, the “increase in fluorescence polarization” value is recorded as “substantial increase in fluorescence polarization”.

Turning to “VAVAASNNPELTTLT (6FAM-VAVAASNNPELTTLT; listed as Mycobacterium bovis) [Peptide 16]”, the “increase in fluorescence polarization” value is “substantial increase in fluorescence polarization”.

As for “AASNNPELTTLTAAL (6FAM-AASNNPELTTLTAAL; listed as Mycobacterium bovis) [Peptide 19]”, the “increase in fluorescence polarization” value is given as “substantial increase in fluorescence polarization”.

With “ASNNPELTTLTAALS (6FAM-ASNNPELTTLTAALS; listed as Mycobacterium bovis) [Peptide 20]”, the “increase in fluorescence polarization” value is on record as “substantial increase in fluorescence polarization”.

As for “AVAASNNPELTTLTA (6FAM-AVAASNNPELTTLTA; listed as Mycobacterium bovis) [Peptide 17]”, the “increase in fluorescence polarization” value is listed as “substantial increase in fluorescence polarization”.
